# Data: patent publication US9271984B2, “Treatment of type 1 diabetes” (POXEL, priority 2010, dated 2016)
# Tested on: rat pancreatic islets
# Assay: Protective effect on beta cell death: quantification of cytoplasmic nucleosomes (apoptosis, Cell Death Detection ELISA) in cultured rat islets with or without cytokine cocktail
# Assay type: cell-based
# Description: Male Wistar rat islets (Elevage Janvier, Le Genest-St-Isle, France) were isolated using collagenase (Serva, Heidelberg, Germany) and cultured in RPMI at 11 mM glucose (Invitrogen, CA, USA) supplemented with 10% FCS (Fetal Calf Serum), 100 Units/ml penicillin, 100 μg/ml streptomycin and 100 μg/ml gentamycin in low-attachment 24-well plates (Corning, NY, USA). These islets were incubated with a cocktail of rat cytokines (TNF-alpha, IL-1beta and INF-gamma each at 2 ng/ml) for 24 hours (Brun T. et al., 2004 and 2007). […] Aliquots of the medium were used to measure insulin accumulated during the culture period using immune enzyme assay kits (Brunchwig, Basel, Switzerland). Furthermore, quantification of cytoplasmic nucleosomes, a direct indicator of apoptosis, was performed with the Cell Death Detection ELISA kit (Roche, Basel, Switzerland). Each condition was tested with 50 rat islets in duplicate and four independent experiments were performed. The results are provided as mean+/−sem and statistical analyses were performed using one-way ANOVA with Bonferroni and Dunnett post-hoc tests.
# The conditions without cytokines allowed the analysis of the specific effect of the compound on islets while the combination of the drug with cytokines allowed the study of the effect of Imeglimin on islets under an inflammatory stress. To measure cell death in islets, quantification of cytoplasmic nucleosomes in islet cells, a consequence of DNA fragmentation during apoptosis (Robertson et al., 2000), was performed. […] Furthermore, a negative control and a positive control were added to the conditions with and without cytokines to test the effectiveness of the protocol. […] The results of the quantification of cell death for each condition are presented on FIG. 1.
# [1] = with cytokines (TNF-alpha, IL-1beta, INF-gamma each 2 ng/ml, 24 hours), 100 μM
Molecule,protective properties against apoptosis on cultured rat islets (basal and inflammation-like apoptosis),"protection of islets from the cytokine stress (both doses (100 μM and 1 mM), cytokine cocktail 24 hours)",less apoptosis than cytokine-stressed islets [1],less apoptosis than untreated islets [1],"less apoptosis than cytokine-stressed islets (with cytokines, 1 mM)","less apoptosis than untreated islets (with cytokines, 1 mM)","potency relative to Exendin-4 (more potent) (with cytokines, lower concentration tested (100 μM) vs Exe-4 10 nM)","level of protection relative to the Exendin-4 level (without cytokines, 100 μM vs Exe-4 10 nM)","less apoptosis than untreated islets (without cytokines, 100 μM, 24 hours culture)","drop in apoptosis vs cytokine-stressed islets (with cytokines, Exe-4 10 nM)","drop in apoptosis vs untreated islets (with cytokines, Exe-4 10 nM)","decrease in cell death (without cytokines, Exe-4 10 nM, vs untreated islets)"
"CC1N=C(N)NC(N(C)C)=N1.Cl (single isomer, unassigned; (+)) [(+)-2-amino-3,6-dihydro-4-dimethylamino-6-methyl-1,3,5-triazine hydrochloride]",protective properties against basal and inflammation-like apoptosis,completely protected,37%,29%,25%,16%,~50%,two thirds,10%,,,
Exendin-4 [reference compound],,,,,,,,,,29%,20%,16%
